According to US20230399319A1, “Acylsulfamide Compound and Pharmaceutical Use Therefor” (Japan Tobacco Inc., priority 2019, published 2023):
Read-outs that look alike come from different tables or passages of the source.

Target: NLRP3 inflammasome (Homo sapiens (Human), UniProt Q96P20)
Assay: Evaluation of NLRP3 inflammasome inhibitory activity (inhibition of IL-1β production in THP1-Null cells, LPS/Nigericin)
Settings: for inhibition at 3 µM: read-out: % inhibition at 3 μM
[1] = inhibition of IL-1β production in THP1-Null cells
[2] = IL-1β production in THP1-Null cells, PMA/LPS primed, Nigericin 7.5 μmol/L

NLRP3 inflammasome, sequence (Q96P20 whole entry): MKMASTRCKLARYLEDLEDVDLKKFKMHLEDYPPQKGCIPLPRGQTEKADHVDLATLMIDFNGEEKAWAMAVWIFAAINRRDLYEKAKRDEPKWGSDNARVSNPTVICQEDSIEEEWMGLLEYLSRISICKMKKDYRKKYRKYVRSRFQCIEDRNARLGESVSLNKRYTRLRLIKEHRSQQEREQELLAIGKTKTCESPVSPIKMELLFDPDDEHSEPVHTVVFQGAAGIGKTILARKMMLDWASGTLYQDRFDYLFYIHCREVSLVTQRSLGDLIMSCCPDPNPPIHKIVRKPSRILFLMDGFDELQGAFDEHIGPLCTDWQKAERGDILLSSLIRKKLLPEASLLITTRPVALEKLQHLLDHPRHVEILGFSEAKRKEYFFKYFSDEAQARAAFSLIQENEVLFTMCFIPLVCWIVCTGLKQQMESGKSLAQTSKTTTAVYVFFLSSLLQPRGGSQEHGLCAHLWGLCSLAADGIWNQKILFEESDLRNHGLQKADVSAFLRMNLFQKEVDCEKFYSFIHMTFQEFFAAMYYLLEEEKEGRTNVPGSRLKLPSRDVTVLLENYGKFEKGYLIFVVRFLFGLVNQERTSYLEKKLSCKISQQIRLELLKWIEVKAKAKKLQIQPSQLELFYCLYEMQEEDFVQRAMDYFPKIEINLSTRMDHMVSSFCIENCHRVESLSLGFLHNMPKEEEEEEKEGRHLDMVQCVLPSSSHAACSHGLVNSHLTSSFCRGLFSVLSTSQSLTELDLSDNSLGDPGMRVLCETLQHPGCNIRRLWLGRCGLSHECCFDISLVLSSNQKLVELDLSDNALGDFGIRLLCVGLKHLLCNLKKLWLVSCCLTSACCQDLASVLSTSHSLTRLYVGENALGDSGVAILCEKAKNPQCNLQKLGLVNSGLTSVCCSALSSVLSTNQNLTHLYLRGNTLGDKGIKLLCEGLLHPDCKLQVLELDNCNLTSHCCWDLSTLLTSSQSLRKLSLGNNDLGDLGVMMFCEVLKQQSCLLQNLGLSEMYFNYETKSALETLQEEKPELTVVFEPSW
Method: The NLRP3 inflammasome inhibitory activity of test compounds were evaluated CM the basis of the inhibitory activity of the IL-1β, production in THP1-Null cells (Product Number: thp-null, InvivoGen).
A solution containing a test compound (20 μL/well) was added to test compound-setting wells. […] The supernatant of the culture was cryonically stored (set at −20° C.) until measurement of IL-1β.
The amount of IL-1β in the culture supernatant was quantitated with AlphaLISA IL1 beta kit (Product Number: AL220C, Perkin Elmer). […] Inhibition rates of the test compound-setting wells were calculated on the basis of 100% for the blank-setting wells and 0% for the control-setting wells.

Compound: Cc1c(Nc2nc(C(=O)NS(=O)(=O)N3CCCOCC3)co2)c(C(C)C)nn1C(C)C [Example 2-227]
- IC50 [1]: 1500 nM

Compound: Cc1ccc(C(F)(F)F)cc1Nc1nc(C(=O)NS(=O)(=O)N2CCOCC2)co1 [Example 70]
- IC50 [2]: < 30 nM

Compound: Cc1ccc(C(F)F)cc1Nc1nc(C(=O)NS(=O)(=O)N(C)C)co1 [Example 2-010]
- IC50 [1]: 120 nM

Compound: Cc1ccc(C(F)(F)F)cc1Nc1nc(C(=O)NS(=O)(=O)N2CCCOCC2C)co1 (racemic) [Example 2-231]
- IC50: 89 nM

Compound: Cc1cc(C)n(C2CCCN(S(=O)(=O)NC(=O)c3coc(Nc4cc(C(F)(F)F)ccc4C)n3)CC2)n1 (racemic) [Example 2-297]
- IC50: 87 nM

Compound: COCC1CN(S(=O)(=O)NC(=O)c2coc(Nc3c4c(c(Cl)c5c3CCC5)CCC4)n2)CCO1 (racemic) [Example 38]
- IC50: 73 nM

Compound: COCCCc1cc(C)c(Nc2nc(C(=O)NS(=O)(=O)N(C)C)co2)cc1C(C)C [Example 2-238]
- inhibition at 3 µM: 11%

Compound: O=C(NS(=O)(=O)N1CCC(O)C1)c1coc(Nc2c3c(c(F)c4c2CCC4)CCC3)n1 (racemic) [Example 52]
- IC50: 32 nM

Compound: Cc1ccc(C(F)(F)F)cc1Nc1nc(C(=O)NS(=O)(=O)NC(C)C)co1 [Example 2-046]
- IC50 [1]: 320 nM

Compound: Cc1cnc(C)c(Nc2nc(C(=O)NS(=O)(=O)N(C)C)co2)n1 [Example 2-086]
- inhibition at 3 µM: 17%

Compound: Cc1cn(C(C)C)nc1Nc1nc(C(=O)NS(=O)(=O)N(C)C)co1 [Example 2-039]
- IC50 [1]: 500 nM

Compound: Cc1ccc(C)c(Nc2nc(C(=O)NS(=O)(=O)N3CCCN(c4ncccn4)CC3)co2)c1 [Example 2-275]
- IC50 [1]: 160 nM

Compound: CN(C)S(=O)(=O)NC(=O)c1cnc(Nc2c3c(c(F)c4c2CCC4)CCC3)o1 [Example 26]
- IC50 [2]: 130 nM

Compound: CC(C)N(C)S(=O)(=O)NC(=O)c1coc(Nc2c3c(cc4c2CCC4)CCC3)n1 [Example 21]
- IC50 [2]: 43 nM

Compound: CCOCC1CCN(S(=O)(=O)NC(=O)c2coc(Nc3nn(C(C)C)cc3C)n2)CCO1 (stereo not shown) [Example 2-333]
- IC50 [1]: 78 nM

Compound: CCCS(=O)(=O)N1CCCN(S(=O)(=O)NC(=O)c2coc(Nc3cc(C(F)(F)F)ccc3C)n2)CC1 [Example 2-100]
- IC50 [1]: 10 nM

Compound: O=C(NS(=O)(=O)N1CCOC2(COC2)C1)c1coc(Nc2c3c(c(Cl)c4c2CCC4)CCC3)n1 [Example 57]
- IC50 [2]: 74 nM

Compound: COC1COCCN(S(=O)(=O)NC(=O)c2coc(Nc3cc(C(F)(F)F)c(F)cc3C)n2)C1 (racemic) [Example 2-244]
- IC50: 51 nM

Compound: 2-((8-chloro-1,2,3,5,6,7-hexahydro-s-indacen-4-yl)amino)-N—(N,N-dimethylsulfamoyl)oxazole-4-carboxamide [Example 23]
- IC50 [2]: < 30 nM

Compound: O=C(NS(=O)(=O)N1CCCC1)c1coc(Nc2c3c(c(Cl)c4c2CCC4)CCC3)n1 [Example 34]
- IC50 [2]: 48 nM

Compound: CCCCC(=O)N1CCCN(S(=O)(=O)NC(=O)c2coc(Nc3cc(C(F)(F)F)ccc3C)n2)CC1 [Example 2-182]
- IC50 [1]: 10 nM

Compound: Cc1ccc(C(F)(F)F)cc1Nc1nc(C(=O)NS(=O)(=O)N2CCCC(c3ncccn3)[C@@H](C)C2)co1 (stereo partly shown) [Example 2-312]
- IC50 [1]: 140 nM

Compound: Cc1ccc(C(C)C)cc1Nc1nc(C(=O)NS(=O)(=O)N(C)C)cs1 [Example 2-054]
- IC50 [1]: 52 nM

Compound: CN(C)S(=O)(=O)NC(=O)c1coc(Nc2c3c(c(F)c4c2CCC4)CCC3)n1 [Example 27]
- IC50 [2]: 58 nM

Compound: Cc1ccc(C(F)(F)F)cc1Nc1nc(C(=O)NS(=O)(=O)N2CCOCC(C)C2)co1 (racemic) [Example 2-092]
- IC50: 22 nM

Compound: CC(C)c1cn(C(C)C)nc1Nc1nc(C(=O)NS(=O)(=O)N2CCOCCC2C)co1 (racemic) [Example 2-184]
- IC50: 140 nM

Compound: COC1CCCN(S(=O)(=O)NC(=O)c2coc(Nc3cc(C(F)(F)F)ccc3C)n2)CC1 (racemic) [Example 2-148]
- IC50: 40 nM

Compound: CC(C)c1ccc(C(F)(F)F)nc1Nc1nc(C(=O)NS(=O)(=O)N2CCCOCC2)co1 [Example 2-125]
- IC50 [1]: 250 nM

Compound: COC1COCCN(S(=O)(=O)NC(=O)c2coc(Nc3cc(C(C)C)ccc3C)n2)C1 (racemic) [Example 2-294]
- IC50: 37 nM

Compound: COC1COCCN(S(=O)(=O)NC(=O)c2coc(Nc3cc(C)ccc3C(C)C)n2)C1 (racemic) [Example 2-310]
- IC50: 98 nM

Compound: Cc1ccc(C(F)(F)F)cc1Nc1nc(C(=O)NS(=O)(=O)N2CCCNCC2)co1 [Example 2-029]
- IC50 [1]: 180 nM

Compound: CN(C)S(=O)(=O)C1CCN(S(=O)(=O)NC(=O)c2coc(Nc3c4c(c(F)c5c3CCC5)CCC4)n2)CC1 [Example 66]
- IC50 [2]: < 30 nM

Compound: O=C(NS(=O)(=O)N1CCCC1)c1coc(Nc2c3c(c(F)c4c2CCC4)CCC3)n1 [Example 35]
- IC50 [2]: < 30 nM

Compound: CCCS(=O)(=O)N1CCN(S(=O)(=O)NC(=O)c2coc(Nc3cc(C)ccc3C)n2)CC(OC)C1 (racemic) [Example 2-251]
- IC50: 32 nM

Compound: CC(C)n1cc(Nc2nc(C(=O)NS(=O)(=O)N3CCCOCC3)co2)c(C2CC2)n1 [Example 2-195]
- IC50 [1]: 1400 nM

Compound: Cc1ccc(C(C)C)c(Nc2nc(C(=O)NS(=O)(=O)N3CCCOCC3)co2)c1 [Example 2-308]
- IC50 [1]: 82 nM

Compound: Cc1ccc(C(F)(F)F)cc1Nc1nc(C(=O)NS(=O)(=O)N2CCOCC(C#N)C2)co1 (racemic) [Example 2-127]
- IC50: 130 nM

Compound: Cc1ccc(C2(C#N)CC2)cc1Nc1nc(C(=O)NS(=O)(=O)N(C)C)co1 [Example 2-094]
- IC50 [1]: 270 nM

Compound: CC(C)NS(=O)(=O)NC(=O)c1cnc(Nc2c3c(cc4c2CCC4)CCC3)o1 [Example 7]
- IC50 [2]: 200 nM

Compound: Cc1ccc(C(F)(F)F)cc1Nc1nc(C(=O)NS(=O)(=O)N2CCN(S(=O)(=O)CCCF)CC(F)C2)co1 (racemic) [Example 2-198]
- IC50: 29 nM

Compound: Cc1ccc(C(F)(F)F)cc1Nc1nc(C(=O)NS(=O)(=O)N2CCOC(COC(F)F)CC2)co1 (stereo not shown) [Example 2-324]
- IC50 [1]: 17 nM

Compound: Cc1ccc(S(F)(F)(F)(F)F)cc1Nc1nc(C(=O)NS(=O)(=O)N(C)C)co1 [Example 2-034]
- IC50 [1]: 100 nM

Compound: CCOCC1CCN(S(=O)(=O)NC(=O)c2coc(Nc3cc(C)ccc3C)n2)CCO1 (stereo not shown) [Example 2-305]
- IC50 [1]: 49 nM

Compound: Cc1ccc(C(C)(C)C)cc1Nc1nc(C(=O)NS(=O)(=O)N(C)C)co1 [Example 2-069]
- IC50 [1]: 66 nM

Compound: Cc1cn(C(F)F)nc1Nc1nc(C(=O)NS(=O)(=O)N2CCCOCC2)co1 [Example 2-209]
- inhibition at 3 µM: 33%

Compound: CCCS(=O)(=O)N1CCCN(S(=O)(=O)NC(=O)c2coc(Nc3cc(Cl)ccc3C)n2)CC1 [Example 2-291]
- IC50 [1]: 73 nM

Compound: CC1COCCN1S(=O)(=O)NC(=O)c1coc(Nc2c3c(cc4c2CCC4)CCC3)n1 (racemic) [Example 25]
- IC50: 51 nM

Compound: CC(C)c1nn2c(c1Nc1nc(C(=O)NS(=O)(=O)N3CCCOCC3)co1)OCCC2C (stereo not shown) [Example 2-248]
- inhibition at 3 µM: 44%

Compound: O=C(NS(=O)(=O)N1CCC(O)C1)c1coc(Nc2c3c(c(Cl)c4c2CCC4)CCC3)n1 (racemic) [Example 41]
- IC50: 77 nM

Compound: O=C(NS(=O)(=O)N1CC2CC1CO2)c1coc(Nc2c3c(c(Cl)c4c2CCC4)CCC3)n1 (racemic) [Example 56]
- IC50: 46 nM

Compound: COCCN(C(C)C)S(=O)(=O)NC(=O)c1coc(Nc2cc(C(F)(F)F)ccc2C)n1 [Example 2-048]
- IC50 [1]: < 30 nM

Compound: CCN(C)S(=O)(=O)N1CCCN(S(=O)(=O)NC(=O)c2coc(Nc3cc(C(F)(F)F)ccc3C)n2)CC1 [Example 2-129]
- IC50 [1]: 20 nM

Compound: O=C(NS(=O)(=O)N1CCCCC1)c1cnc(Nc2c3c(cc4c2CCC4)CCC3)o1 [Example 3]
- IC50 [2]: 91 nM

Compound: Cc1ccc(C(F)(F)F)cc1Nc1nc(C(=O)NS(=O)(=O)N2CCCC(O)CC2)co1 (racemic) [Example 2-156]
- IC50: 39 nM

Compound: Cc1ccc(C(F)F)cc1Nc1nc(C(=O)NS(=O)(=O)N2CCCOCC2)co1 [Example 2-043]
- IC50 [1]: 49 nM

Compound: CC(C)n1cc(Nc2nc(C(=O)NS(=O)(=O)N3CCCOCC3)co2)c(C(F)(F)F)n1 [Example 2-169]
- IC50 [1]: 1700 nM

Compound: O=C(NS(=O)(=O)N1CCCOCC1)c1cnc(Nc2c3c(cc4c2CCC4)CCC3)o1 [Example 4]
- IC50 [2]: 81 nM

Compound: O=C(NS(=O)(=O)N1CCOCC1)c1cnc(Nc2c3c(cc4c2CCC4)CCC3)o1 [Example 2]
- IC50 [2]: < 30 nM

Compound: O=C(NS(=O)(=O)N1CCCC1)c1cnc(Nc2c3c(cc4c2CCC4)CCC3)o1 [Example 6]
- IC50 [2]: < 30 nM

Compound: CCC1COCCN1S(=O)(=O)NC(=O)c1cnc(Nc2c3c(cc4c2CCC4)CCC3)o1 (racemic) [Example 11]
- IC50: 72 nM

Compound: O=C(NS(=O)(=O)N1CCC(F)(F)C1)c1coc(Nc2c3c(c(Cl)c4c2CCC4)CCC3)n1 [Example 49]
- IC50 [2]: 270 nM

Compound: O=C(NS(=O)(=O)N1CCOCC1)c1coc(Nc2c3c(c(Cl)c4c2CCC4)CCC3)n1 [Example 37]
- IC50 [2]: < 30 nM

Compound: CCOC1COCCN(S(=O)(=O)NC(=O)c2coc(Nc3cc(C(F)(F)F)ccc3C)n2)C1 (racemic) [Example 2-318]
- IC50: 77 nM

Compound: CC(=O)N(C)C1CCCN(S(=O)(=O)NC(=O)c2coc(Nc3cc(C(F)(F)F)ccc3C)n2)CC1 (racemic) [Example 2-232]
- IC50: 30 nM

Compound: Cc1ccc2c(c1Nc1nc(C(=O)NS(=O)(=O)N3CCCOCC3)co1)CCC2 [Example 2-097]
- IC50 [1]: 150 nM

Compound: Cc1ccc(C(C)C)cc1Nc1nc(C(=O)NS(=O)(=O)N2CCCOCC2)co1 [Example 2-047]
- IC50 [1]: < 30 nM

Compound: CCOC1COCCN(S(=O)(=O)NC(=O)c2coc(Nc3cc(C(C)C)ccc3C)n2)C1 (racemic) [Example 2-319]
- IC50: 110 nM

Compound: Cc1ccc(C(F)(F)F)cc1Nc1nc(C(=O)NS(=O)(=O)N2CCCN(S(=O)(=O)N(C)C)CC2)co1 [Example 2-099]
- IC50 [1]: 21 nM

Compound: Cc1ccc(C(C)C)cc1Nc1nc(C(=O)NS(=O)(=O)N2CCOCC2)cs1 [Example 2-055]
- IC50 [1]: < 30 nM

Compound: Cc1ccc(C(F)(F)F)cc1Nc1nc(C(=O)NS(=O)(=O)N2CCOCC2)cs1 [Example 2-065]
- IC50 [1]: 32 nM

Compound: CC(C)C1COCCN1S(=O)(=O)NC(=O)c1cnc(Nc2c3c(cc4c2CCC4)CCC3)o1 (racemic) [Example 10]
- IC50: 210 nM

Compound: Cc1ccc(C(F)(F)F)cc1Nc1nc(C(=O)NS(=O)(=O)N2CCOCCC2C)co1 (racemic) [Example 2-058]
- IC50: 54 nM

Compound: Cc1ccc(C(F)(F)F)cc1Nc1nc(C(=O)NS(=O)(=O)N2CCCn3nccc3C2)co1 [Example 2-254]
- IC50 [1]: 64 nM
